In patent US10143705B2, “Method of treating a patient with a disease caused by a pathogenic mechanism associated with accumlation of methylglyoxal” (priority 2015, dated 2018):

Test: Inhibitory effect of monosaccharides against methylglyoxal in vitro
Conditions: concentration 0.05 M
Text: The percentage inhibitory ratio of monosaccharide against methylglyoxal is 50% when the concentration of the monosaccharide is 0.05 M.
Foregoing exemplary embodiments of the present invention manifest that the low-molecular-weight chitosan has considerable effect to the carbonyl stress induced by the methylglyoxal both in vivo and in vitro. For an exemplary embodiment in vitro, the present invention employs buffer to simulate the same environmental status as human body by means of putting glucosamine and low-molecular-weight chitosan into buffer containing methylglyoxal to measure the bonding ratio thereof after 16 hours so that the half Inhibitory concentration associated with the affecting of low-molecular-weight chitosan to methylglyoxal can be obtained for further study on the examination of the binding conjugation of low-molecular-weight chitosan with methylglyoxal in vitro.

Structure (SMILES): NC1C(O)[C@H](O)C(CO)O[C@@H]1O (stereo partly shown) [monosaccharide, glucosamine]
- percentage inhibitory ratio against methylglyoxal: 50%
